The subject of data set [1] is H460 cells. Description: Cell migration (scratch assay, Transwell). It is filed as cell-based, human. Conditions: 100 nmol/L, 48 h. The procedure: Method 1: H460 cells with a cell density of more than 90% in 10 cm^2 dishes were plated in 12-well plates using serum-free medium according to the cell growth rate. After 12 h, 200 uL pipette tips were used to draw straight lines in the wells. The floating cells were washed away and transfection was performed, and the groups (three wells per group, two lines per well) were divided as follows: • blank control group: 200 uL of opti-MEM per well • negative control group (NC group) and experimental group: • A. 100 uL of opti-MEM and 2 uL of iMax were mixed well for 5 min • B. 100 uL of opti-MEM and 5 uL of small RNA (final concentration 100 nmol/L) were mixed well • C. solution A and solution B were mixed well and let stand for 15 min, and then was added to each well at a 200 uL system • Note: 100 uL of nuclease-free water was added to 2 nmol of small RNA dry powder for dissolution at a storage concentration of 20 umol/L
After 48 h, the supernatant was discarded and images were taken under a microscope.
Method 2: H460 cells with a cell density of more than 90% in 10 cm^2 dishes were digested and then resuspended with 1 mL of serum-free medium and counted. 100,000 cells (100 uL) were plated in the upper chamber, and complete medium with 10% FBS was added to the lower chamber of each Transwell (migration chamber). […]
(§1) 1) H460 cells with a cell density of more than 90% in 10 cm^2 dishes were digested and then resuspended with 1 mL of serum-free medium and counted. […]
as §1

The test system of data set [2] is breast cancer MDA-MB-231 cells. Put plainly: Concentration-dependent proliferation inhibition, MTS. It counts as cell-based. The following applies: gradient 0.01-100 noml/L, MTS after 48 h. The procedure:
1) Breast cancer MCF7 cells, breast cancer MDA-MB-231 cells, gastric cancer AGS cells, pancreatic cancer HS766T cells, pancreatic cancer ASPC-1 cells, and prostate cancer PC-3 cells with a cell density of more than 90% in 10 cm^2 plates were plated in 96-well according to the cell growth rate. Transfection was performed after 12 h, and the groups (3 wells per group) were divided as follows: • blank control group: 20 uL of opti-MEM • negative control group (NC group) and experimental group: • A. 10 uL of opti-MEM and 0.2 uL of iMax were mixed well for 5 min • B. 10 uL of opti-MEM and small RNA were mixed well (the concentration gradient of experimental group was set as: 0.01 noml/L, 0.03 noml/L, 0.1 noml/L, 0.39 noml/L, 0.78 noml/L, 1.56 noml/L, 3.125 noml/L, 6.25 noml/L, 12.5 noml/L, 25 noml/L, 50 noml/L, 100 noml/L; the final concentration of sRNA in NC group was 100 noml/L) • C. solution A and solution B were mixed well and let stand for 15 min, and then was added at a 20 uL system • Note: 100 uL of nuclease-free water was added to 2 nmol of small RNA dry powder for dissolution at a storage concentration of 20 umol/L
2) Detection of cell viability: MTS detection was performed after 48 h.
Formulation of MTS detection solution was as follows: opti-MEM:MTS A solution:MTS B solution=100:20:1. […] Absorbance values at wavelengths of 490 nm and 630 nm were measured in a microplate reader. […]

As for “HQi-sRNA-2: small RNA derived from Scutellaria baicalensis, sequence AUGGUUCGAUUCCGGAGAGGG (listed as RNA, chemistry not given here)”, in data set [1], the cell migration result is reported as “inhibits”.

“MDM-sRNA-163: small RNA derived from Maytenus hookeri, sequence UGACUCUAGUCCGACUUUGUGAAAUGACU (listed as RNA, chemistry not given here)”: the cell migration result in data set [1] is reported as “inhibits”. Moreover, in data set [2], the “proliferation-inhibiting function (cell activity, MTS)” value is reported as “concentration-dependent”.

Take “MDM-sRNA-39: small RNA derived from Maytenus hookeri, sequence GGGAUUGUAGUUCAAUUGGUCAGAGCACC (listed as RNA, chemistry not given here)”: in data set [1], the cell migration result is listed as “inhibits”. In addition, the “proliferation-inhibiting function (cell activity, MTS)” value in data set [2] was “concentration-dependent”.

These data come from patent US20250302862A1, “SMALL RNA DRUG FOR INHIBITING ACTIVITY OF CANCER CELLS” (Institute of Basic Medical Sciences Chinese Academy of …, priority 2022, published 2025).
